Measured values reported in patent US10000454B2, “Antidiabetic tricyclic compounds” (Merck Sharp & Dohme Corp., priority 2014, dated 2018).
pEC50: −log10 of the molar value.

Key:
[1] = target: T1, Human GPR40 (Homo sapiens, UniProt O14842); assay: FLIPR assay, agonist-induced calcium mobilization; format: cell-based; parameters: expressed in transfected cells; conditions: GPR40/CHO NFAT BLA cells
Protocol: (§1) Human and mouse GPR40 stable cell-lines were generated in CHO cells stably expressing NFAT BLA (Beta-lactamase). A human GPR40 stable cell-line was generated in HER cells stably expressing the aequorin expressing reporter. The expression plasmids were transfected using lipofectamine (Life Technologies) following manufacturer's instructions. Stable cell-lines were generated following drug selection.
FLIPR (Fluorimetric Imaging Plate Reader, Molecular Devices) assays were performed to measure agonist-induced calcium mobilization of the stable clones. For the FLIPR assay, one day before assay, GPR40/CHO NFAT BLA cells were seeded into black-wall-clear-bottom 384-well plates (Costar) at 1.4×10e4 cells/20 μL medium/well. The cells were incubated with 20 μl/well of the assay buffer (HMS, 0.1% BSA, 20 mM HEPES, 2.5 mM probenecid, pH 7.4) containing 8 μM fluo-4, AM, 0.08% pluronic acid at room temperature for 100 minutes. Fluorescence output was measured using FLIPR. Compounds were dissolved in DMSO and diluted to desired concentrations with assay buffer. 13.3 μL/well of compound solution was added.

[2] = target: T1, Human GPR40; assay: Inositol Phosphate Turnover (IP1) Assay; format: cell-based; parameters: expressed in transfected cells; host or cells: HEK cells (stably expressing the aequorin reporter); conditions: HEK cells stably expressing human GPR40, CisBio IP-One kit
Protocol: as §1
The assay is performed in 384-well format. HEK cells stably expressing human GPR40 are plated at 15,000 cells per well in growth medium (DMEM/10% fetal calf serum). Cell plates are then incubated 16 hours at 37 degrees in a 5% CO2 incubator.
Measurement of Inositol Phosphate Turnover (IP1) is performed using the CisBio IP-One kit (Part number 62IPAPEB). After the 16 hour incubation, the cells are washed with HEPES buffer and 10 ul of stimulation buffer (prepared as described in the kit) is added to each well. In a separate plate, compounds are diluted in DMSO (400-fold over the final concentration in the assay well) and 25 nl is acoustically transferred to the appropriate well in the assay cell plate. The plates are then incubated for 60 minutes at 37 degrees. 10 ul of detection buffer (also prepared as described in the IP-One kit) is added to each well and the plates are incubated for 60 minutes in the dark. The plates are then read in a Perkin Elmer EnVision or equivalent reader able to measure FRET. Fluorescent ratio of emission at 665 and 620 nm is then converted to IP1 concentration by back calculating from an IP1 standard curve prepared at the time of the assay.

T1 sequence (O14842 whole entry): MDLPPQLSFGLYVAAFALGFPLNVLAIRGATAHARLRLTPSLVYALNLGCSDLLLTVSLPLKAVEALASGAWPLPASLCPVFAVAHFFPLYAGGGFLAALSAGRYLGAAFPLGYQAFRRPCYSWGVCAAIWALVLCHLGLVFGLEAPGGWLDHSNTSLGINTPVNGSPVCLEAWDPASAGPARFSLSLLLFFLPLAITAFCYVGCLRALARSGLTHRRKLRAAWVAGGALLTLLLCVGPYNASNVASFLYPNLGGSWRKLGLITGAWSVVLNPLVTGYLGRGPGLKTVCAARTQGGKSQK

Structure (SMILES) | pEC50 [1] | pEC50 [2]
CC1(C)CC(c2ccccc2C(F)(F)F)c2cc(COc3cc4c(cn3)[C@H]3[C@@H](C4)[C@@H]3C(=O)O)c(F)cc21 (single isomer, unassigned) [Example 22] | 7.92 | 7.90
CC1(C)CC(c2ccccc2C(F)(F)F)c2cc(COc3cc4c(cn3)[C@H]3[C@@H](C4)[C@@H]3C(=O)O)c(F)cc21 (single isomer, unassigned) [Example 23] | 7.70 | 7.78
O=C(O)[C@H]1[C@@H]2Cc3cc(OCc4ccc5c(c4)C(c4ccccc4C(F)(F)F)CCC5)ncc3[C@@H]21 (single isomer, unassigned) [Example 42] | 7.75 | 8.01
O=C(O)[C@H]1[C@@H]2Cc3cc(OCc4cc5c(cc4F)C(n4cccn4)CC5c4ccccc4C(F)(F)F)ncc3[C@@H]21 (single isomer, unassigned) [Example 57] | – | 8.75
O=C(O)[C@H]1[C@@H]2Cc3cc(OCc4cc5c(cc4F)C(n4cccn4)CC5c4ccccc4C(F)(F)F)ncc3[C@@H]21 (single isomer, unassigned) [Example 58] | – | 6.09
O=C(O)[C@H]1[C@@H]2Cc3cc(OCc4cc5c(cc4F)CCOC5c4ccccc4C(F)(F)F)ncc3[C@@H]21 (single isomer, unassigned) [Example 60] | – | 7.97
O=C(O)[C@H]1[C@@H]2Cc3cc(OCc4cccc5c4CCC5c4ccccc4C(F)(F)F)ncc3[C@@H]21 (single isomer, unassigned) [Example 64] | – | 6.81
O=C(O)[C@H]1[C@@H]2Cc3cc(OCc4cccc5c4CCC5c4ccccc4C(F)(F)F)ncc3[C@@H]21 (single isomer, unassigned) [Example 65] | – | 6.91
O=C(O)[C@H]1[C@@H]2Cc3cc(OCc4cc5c(cc4F)C(F)(F)CC5c4ccccc4C(F)(F)F)ncc3[C@@H]21 (single isomer, unassigned) [Example 69] | 8.82 | 8.05
O=C(O)[C@H]1[C@@H]2Cc3cc(OCc4cc5c(cc4F)C(F)(F)CC5c4ccccc4C(F)(F)F)ncc3[C@@H]21 (single isomer, unassigned) [Example 70] | 8.22 | 7.80
CC1(C)CNC(c2ccccc2C(F)(F)F)c2cc(COc3cc4c(cn3)[C@H]3[C@@H](C4)[C@@H]3C(=O)O)c(F)cc21 (single isomer, unassigned) [Example 72] | 8.28 | 8.29
CC1(C)CC(c2ccccc2C(F)(F)F)c2cc(COc3cc4c(cn3)[C@@]3(C)[C@@H](C4)[C@@H]3C(=O)O)c(F)cc21 (single isomer, unassigned) [Example 75] | – | 6.80
O=C(O)[C@H]1[C@@H]2Cc3cc(OCc4ccc5c(c4)C(c4ccccc4C(F)(F)F)CC54CC4)ncc3[C@@H]21 (stereo partly drawn) [Example 1, (5aR,6S,6aS)-3-((3′-(2-(trifluoromethyl)phenyl)-2′,3′-dihydrospiro[cyclopropane-1,1′-inden]-5′-yl)methoxy)-5,5a,6,6a-tetrahydrocyclopropa[4,5]cyclopenta[1,2-c]pyridine-6-carboxylic acid] | 7.49 | 7.94
O=C(O)[C@H]1[C@@H]2Cc3cc(OCc4cc5c(cc4F)CCC5c4ccccc4C(F)(F)F)ncc3[C@@H]21 (stereo partly drawn) [Example 20, (5aR,6S,6aS)-3-((6-fluoro-3-(2-(trifluoromethyl)phenyl)-2,3-dihydro-1H-inden-5-yl)methoxy)-5,5a,6,6a-tetrahydrocyclopropa[4,5]cyclopenta[1,2-c]pyridine-6-carboxylic acid] | – | 7.99
CC1(C)CC(c2ccccc2C(F)(F)F)c2cc(COc3cc4c(cn3)[C@@H]3[C@@H](C(=O)O)[C@@H]3C4(F)F)c(F)cc21 (stereo partly drawn) [Example 24, (5aR,6R,6aR)-5,5-difluoro-3-((6-fluoro-1,1-dimethyl-3-(2-(trifluoromethyl)phenyl)-2,3-dihydro-1H-inden-5-yl)methoxy)-5,5a,6,6a-tetrahydrocyclopropa[4,5]cyclopenta[1,2-c]pyridine-6-carboxylic acid] | – | 7.28
CC1(C)OC(c2ccccc2C(F)(F)F)c2cc(COc3cc4c(cn3)[C@H]3[C@@H](C4)[C@@H]3C(=O)O)c(F)cc21 (stereo partly drawn) [Example 41, (5aR,6S,6aS)-3-((6-fluoro-1,1-dimethyl-3-(2-(trifluoromethyl)phenyl)-1,3-dihydroisobenzofuran-5-yl)methoxy)-5,5a,6,6a-tetrahydrocyclopropa[4,5]cyclopenta[1,2-c]pyridine-6-carboxylic acid] | – | 8.70
COc1ccc(F)c(C2CC(C)(C)c3cc(F)c(COc4cc5c(cn4)[C@H]4[C@@H](C5)[C@@H]4C(=O)O)cc32)c1 (stereo partly drawn) [Example 45, (5aR,6S,6aS)-3-((6-fluoro-3-(2-fluoro-5-methoxyhenyl)-1,1-dimethyl-2,3-dihydro-1H-inden-5-yl)methoxy)-5,5a,6,6a-tetrahydro-cyclopropa[4,5]cyclopenta [1,2-c]pyridine-6-carboxylic acid] | – | 6.65
CC1(C)CCN(c2ccccc2C(F)(F)F)c2c1ccc(COc1cc3c(cn1)[C@H]1[C@@H](C3)[C@@H]1C(=O)O)c2F [Example 52, (5aR,6S,6aS)-3-((8-fluoro-4,4-dimethyl-1-(2-(trifluoromethyl)phenyl)-1,2,3,4-tetrahydroquinolin-7-yl)methoxy)-5,5a,6,6a-tetrahydrocyclopropa[4,5]cyclopenta[1,2-c]pyridine-6-carboxylic acid] | – | 7.53
COc1ccc(F)c(N2CC(C)(C)c3cc(F)c(COc4cc5c(cn4)[C@H]4[C@@H](C5)[C@@H]4C(=O)O)cc32)c1 [Example 56, (5aR,6S,6aS)-3-((5-fluoro-1-(2-fluoro-5-methoxyphenyl)-3,3-dimethylindolin-6-yl)methoxy)-5,5a,6,6a-tetrahydrocyclopropa[4,5]cyclopenta[1,2-c]pyridine-6-carboxylic acid] | – | 7.36
O=C(O)[C@H]1[C@@H]2Cc3cc(OCc4cc5c(cc4F)CCOC5c4ccccc4C(F)(F)F)ncc3[C@@H]21 (some centres unmarked) [Example 59] | – | 7.01
O=C(O)[C@H]1[C@@H]2Cc3cc(OCc4cc5c(-c6ccccc6C(F)(F)F)cn(-c6ccccc6)c5cc4F)ncc3[C@@H]21 [Example 63, (5aR,6S,6aS)-3-((6-fluoro-1-phenyl-3-(2-(trifluoromethyl)phenyl)-1H-indol-5-yl)methoxy)-5,5a,6,6a-tetrahydrocyclopropa[4,5]cyclopenta[1,2-c]pyridine-6-carboxylic acid] | – | 7.55
CC1(C)CC(C)(C)c2cc(COc3cc4c(cn3)[C@H]3[C@@H](C4)[C@@H]3C(=O)O)c(F)cc21 [Example 76, (5aR,6S,6aS)-3-((6-fluoro-1,1,3,3-tetramethyl-2,3-dihydro-1H-inden-5-yl)methoxy)-5,5a,6,6a-tetrahydrocyclopropa[4,5]cyclopenta[1,2-c]pyridine-6-carboxylic acid] | – | 7.76
O=C(O)[C@H]1[C@@H]2Cc3cc(OCc4cc5c(cnn5-c5ccccc5C(F)(F)F)cc4F)ncc3[C@@H]21 [Example 77, (5aR,6S,6aS)-3-((5-fluoro-1-(2-(trifluoromethyl)phenyl)-1H-indazol-6-yl)methoxy)-5,5a,6,6a-tetrahydrocyclopropa[4,5]cyclopenta[1,2-c]pyridine-6-carboxylic acid] | – | 8.15
O=C(O)[C@H]1[C@@H]2Cc3cc(OCc4cc5c(ccn5Cc5ccccc5C(F)(F)F)cc4F)ncc3[C@@H]21 [Example 78, (5aR,6S,6aS)-3-((5-fluoro-1-(2-(trifluoromethyl)benzyl)-1H-indol-6-yl)methoxy)-5,5a,6,6a-tetrahydrocyclopropa[4,5]cyclopenta[12-c]pyridine-6-carboxylic acid] | – | 6.71
CN(C)[C@H]1C[C@H](c2ccccc2C(F)(F)F)c2cc(COc3cc4c(cn3)[C@H]3[C@@H](C4)[C@@H]3C(=O)O)c(F)cc21 [Example 79, (5aR,6S,6aS)-3-(((1S,3S)-1-(dimethylamino)-6-fluoro-3-(2-(trifluoromethyl)phenyl)-2,3-dihydro-1H-inden-5-yl)methoxy)-5,5a,6,6a-tetrahydrocyclopropa[4,5]cyclopenta[1,2-c]pyridine-6-carboxylic acid, or (5aR,6S,6aS)-3-(((1R,3R)-1-(dimethylamino)-6-fluoro-3-(2-(trifluoromethyl)phenyl)-2,3-dihydro-1H-inden-5-yl)methoxy)-5,5a,6,6a-tetrahydrocyclopropa[4,5]cyclopenta[1,2-c]pyridine-6-carboxylic acid] | – | 7.81
